The values below come from patent publication EP4491625A1, “BENZO BICYCLIC COMPOUND, AND PREPARATION METHOD AND APPLICATION THEREOF” (Guangzhou Unirise Pharmaceutical Co., Ltd., priority 2022, dated 2023).

Where a name gives a salt, the structure may show the parent alone.

Series [1] in a line: Pharmacokinetic study in rats (intravenous or gavage, plasma LC-MS/MS). Format: in vivo. Conditions: SD rats; for F: po 5 mg/kg versus iv 1 mg/kg; for AUC(0-t) / Cmax / Tmax / half-life: rat, plasma. The procedure:
SD rats: male, 6-8 weeks old, weighing 200-300 g, purchased from SPF ( Beijing ) Biotechnology Co.,Ltd..
At each PK sampling point, 200 µL of whole blood was collected into EDTA-K2 anticoagulant blood tubes and centrifuged at 4°C for 30 min to obtain plasma. Whole blood samples were placed on wet ice before centrifugation. All collected plasma samples were stored on dry ice or frozen until analyzed.
Approximately1 mg of the compound of the present application was weighed and dissolved in DMSO, vortexed and sonicated to obtain a 1 mg/mL standard stock solution. The standard stock solution was diluted with 50% aqueous acetonitrile to obtain standard working solutions with concentrations of 5, 10, 20, 50, 100, 500, 1000, 5000 and 10000 ng/mL. QC working solutions with concentrations of 10, 20, 500 and 8000 ng/mL were prepared using the same dilution method. These QC samples were prepared on the day of analysis in the same way as the standard curve samples.5 µL of standard working solution with concentrations of (5, 10, 20, 50, 100, 500, 1000, 5000 and 10000 ng/mL) was added to 50 µL of blank SD rat plasma to obtain a total volume of 55 µL with concentrations of 0.5-1000 ng/mL (0.5, 1, 2, 5, 10, 50, 100, 500, and 1000 ng/mL) of standard curve samples. QC samples with concentrations of (1 ng/ml (low-1) and 2 ng/ml (low-2), 50 ng/ml (medium), 800 ng/ml (high)) were configured separately.
55 µL of standard samples, 55 µL of QC samples or 55 µL of unknown samples (50 µL of plasma samples added to 5 µL of 50% aqueous acetonitrile) were added to 200 µL of acetonitrile containing an internal standard (dexamethasone) to precipitate proteins. […] The supernatant was taken and diluted 3-fold with water, and 5 µL of the supernatant dilution was injected into the LC-MS/MS system for quantitative analysis under the following assay conditions:
Column: HALO 90A Phenly-Hexyl, 2µm 2.1×30mm.
Pharmacokinetic parameters were calculated by the […] of Phoenix TM Winnonlin® 8.3 software.

A further series deals with T1, GLP-1 receptor (Homo sapiens, UniProt P43220).
T1 construct: host or cells: HEK293
Put plainly: cAMP detection assay of agonistic effect in HEK293 cells with high expression of hGLP-1R. To be noted: agonistic effect, cAMP, HEK293 cells with high expression of hGLP-1R; read-out: EC50. Type of series: cell-based. The procedure:
The cells were constructed by Wuxi New Drug Development Co., Ltd. Shanghai.
The compound was prepared with DMSO to a working concentration of 100µM or 10µM. 10 points of 4-fold dilution (maximum concentration of 1000nM or 100nM after dilution) was done with Bravo V11.
The compound to be tested was diluted 4 times with Bravo to obtain 10 concentrations and the initial concentration was 100µM by Bravo V11. The initial concentration was 100µM.

T1 sequence (P43220 24-463): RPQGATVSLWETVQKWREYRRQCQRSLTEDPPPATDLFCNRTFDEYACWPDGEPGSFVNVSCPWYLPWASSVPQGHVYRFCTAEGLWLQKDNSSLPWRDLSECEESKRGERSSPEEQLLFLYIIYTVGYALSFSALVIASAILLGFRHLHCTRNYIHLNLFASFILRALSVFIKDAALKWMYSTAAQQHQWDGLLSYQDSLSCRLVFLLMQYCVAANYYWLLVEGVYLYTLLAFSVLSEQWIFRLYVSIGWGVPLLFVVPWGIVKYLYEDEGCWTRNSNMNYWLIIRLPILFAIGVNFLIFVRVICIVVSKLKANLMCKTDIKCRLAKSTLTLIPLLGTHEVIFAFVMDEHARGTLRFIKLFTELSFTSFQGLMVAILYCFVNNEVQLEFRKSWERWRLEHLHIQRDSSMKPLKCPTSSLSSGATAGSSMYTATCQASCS

Take `O=C(O)c1ccc2nc(CC3CC=C(c4cccc(OCc5ccc(Cl)c6cc(Cl)oc56)n4)CC3)n(C[C@@H]3CCO3)c2c1` (stereo partly drawn) [Compound 25, 2-((4-(6-((2,4-dichlorobenzofuran-7-yl)methoxy)pyridin-2-yl)cyclohex-3-en-1-yl)methyl)-1-(((S)-oxetan-2-yl)methyl)-1H-benzo[d]imidazole-6-carboxylic acid]: the F in series [1] amounted to 38.8%. In series [1] (male, iv, 1 mg/kg), the AUC(0-t) (commonly the area under the concentration-time curve up to a stated or last time point) came to 1250 ng·h/mL, the Cmax (usually the maximum level reached in the sampled fluid or tissue) amounted to 1080 ng/mL, the time of peak concentration (Tmax) (commonly the time from dosing to the highest level) amounted to 0.083 h and the half-life (usually the time in which the quantity being followed falls by half) was 2.57 h. In series [1] (male, po, 5 mg/kg), the AUC(0-t) is 2440 ng·h/mL, the peak level (Cmax) was 460 ng/mL, the time to peak (Tmax) is 4 h and the half-life is 5.29 h.

`O=C(O)c1ccc2nc(CC3CC=C(c4cccc(OCc5ccc(Cl)c6ccoc56)n4)CC3)n(C[C@@H]3CCO3)c2n1` (stereo partly drawn) [Compound 34, 2-((4-(6-((4-chlorobenzofuran-7-yl)methoxy)pyridin-2-yl)cyclohex-3-en-1-yl)methyl)-3-(((S)-oxetan-2-yl)methyl)-3H-imidazo[4,5-b]pyridine-5-carboxylic acid]: on GLP-1 receptor, the EC50 – broadly, the concentration giving half of the maximal effect – worked out at 0.2 nM.

As to `O=C(O)c1ccc2nc(C[C@H]3CC[C@H](c4cccc(OCc5ccc(Cl)c6cc(Cl)oc56)n4)CC3)n(C[C@@H]3CCO3)c2c1` [Compound 38B, 2-(((1r,4S)-4-(6-((2,4-dichlorobenzofuran-7-yl)methoxy)pyridin-2-yl)cyclohexyl)methyl)-1-(((S)-oxetan-2-yl)methyl)-1H-benzo[d]imidazole-6-carboxylic acid], the F in series [1] is 21.1%. Moreover, in series [1] (iv, 1 mg/kg), the exposure AUC(0-t) worked out at 3940 ng·h/mL, the peak concentration (Cmax) came out at 5280 ng/mL, the Tmax turned out to be 0.083 h and the half-life was 1.45 h. Further, in series [1] (po, 5 mg/kg), the exposure AUC(0-t) turned out to be 4130 ng·h/mL, the highest level (Cmax) was 1400 ng/mL, the time to peak (Tmax) turned out to be 1.17 h and the half-life is 2.62 h.

Regarding `O=C(O)c1ccc2nc(CC3CCC(c4cccc(OCc5ccc(Cl)c6cc(F)oc56)n4)CC3)n(C[C@@H]3CCO3)c2c1` (stereo partly drawn) [Compound 7, (5)-2-((4-(6-((4-chloro-2-fluorobenzofuran-7-yl)methoxy)pyridin-2-yl)cyclohexyl)methyl)-1-(oxetan-2-ylmethyl)-1H-benzo[d]imidazole-6-carboxylic acid], the EC50 on GLP-1 receptor amounted to 0.22 nM.

As for `O=C(O)c1ccc2nc(C[C@H]3CC=C(c4cccc(OCc5ccc(Cl)c6cc(F)oc56)n4)CC3)n(C[C@@H]3CCO3)c2c1` [Compound 36B, 2-(((R)-4-(6-((4-chloro-2-fluorobenzofuran-7-yl)methoxy)pyridin-2-yl)cyclohex-3-en-1-yl)methyl)-1-(((S)-oxetan-2-yl)methyl)-1H-benzo[d]imidazole-6-carboxylic acid], the EC50 on GLP-1 receptor turned out to be 0.22 nM.

For `N#CCC1(Cn2c(C[C@H]3CC[C@H](c4cccc(OCc5ccc(Cl)c6cc(F)oc56)n4)CC3)nc3ccc(C(=O)O)cc32)CC1` [Compound 43, 2-(((1r,4r)-4-(6-((4-chloro-2-fluorobenzofuran-7-yl)methoxy)pyridin-2-yl)cyclohexyl)methyl)-1-((1-(cyanomethyl)cyclopropyl)methyl)-1H-benzo[d]imidazole-6-carboxylic acid], at GLP-1 receptor, the 50% effective concentration (EC50) was 0.2 nM.

Turning to `O=C(O)c1cc(F)c2nc(C[C@H]3CC[C@H](c4cccc(OCc5ccc(Cl)c6cc(F)oc56)n4)CC3)n(C[C@@H]3CCO3)c2c1` [Compound 39, 2-(((1r,4S)-4-(6-((4-chloro-2-fluorobenzofuran-7-yl)methoxy)pyridin-2-yl)cyclohexyl)methyl)-4-fluoro-1-(((S)-oxetan-2-yl)methyl)-1H-benzo[d]imidazole-6-carboxylic acid], the 50% effective concentration (EC50) on GLP-1 receptor is 0.15 nM.

For the compound `CCn1cncc1Cn1c(CC2CC=C(c3cccc(OCc4ccc(Cl)c5cc(F)oc45)n3)CC2)nc2ccc(C(=O)O)cc21` (stereo not drawn) [Compound 29, 2-((4-(6-((4-chloro-2-fluorobenzofuran-7-yl)methoxy)pyridin-2-yl)cyclohex-3-en-1-yl)methyl)-1-((1-ethyl-1H-imidazol-5-yl)methyl)-1H-benzo[d]imidazole-6-carboxylic acid hydrochloride], the EC50 at GLP-1 receptor is 0.22 nM.
